Some results are limits rather than exact numbers.

For the experiment, the target named is mTOR/GbL/Raptor (mTORC1) (Homo sapiens, UniProt P42345). Put plainly: mTOR/GbL/Raptor (mTORC1) ELISA assay. The class given is biochemical. The following applies: phosphorylation of 4E-BP1; 0.2 nM mTORC1, 10 μM ATP; read-out: IC50 in this assay (mTORC1 ELISA). In outline: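 ELISA read-out: phospho-4E-BP1 captured on Ni-chelate plates and detected with anti-phospho antibody plus HRP-anti-IgG luminescence. The kinase step ran 120 min at ambient temperature with 0.2 nM human mTORC1, 10 µM ATP, 50 nM His-4E-BP1, 10 mM MnCl2, pH 7.2 HEPES.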
`CNC(=O)c1ccc(-c2ccc3c(c2)CN(c2ncnc(C)c2Cc2ccc(F)cc2)CCO3)cc1` [Example 171, 4-(4-{5-[(4-fluorophenyl)methyl]-6-methylpyrimidin-4-yl}-2,3,4,5-tetrahydro-1,4-benzoxazepin-7-yl)-N-methylbenzamide]: the IC50 is no more than 10 nM.

As for `Cc1ncnc(N2CCOc3ccc(-c4ccc(C(=O)NC5CC5)cc4)cc3C2)c1Cc1ccc(F)cc1` [Example 172, N-cyclopropyl-4-(4-{5-[(4-fluorophenyl)methyl]-6-methylpyrimidin-4-yl}-2,3,4,5-tetrahydro-1,4-benzoxazepin-7-yl)benzamide], the IC50 lay within 50 to 250 nM.

For `Cc1ncnc(N2CCOc3ccc(-c4ccc(C(=O)NCC(F)F)cc4)cc3C2)c1Cc1ccc(F)cc1` [Example 174, N-(2,2-difluoroethyl)-4-(4-{5-[(4-fluorophenyl)methyl]-6-methylpyrimidin-4-yl}-2,3,4,5-tetrahydro-1,4-benzoxazepin-7-yl)benzamide], the IC50 is no more than 10 nM.

As to `COC(=O)Nc1nc2ncc(-c3ccc4c(c3)CN(c3ncnc(C)c3Cc3ccc(F)cc3)CCO4)cc2[nH]1` [Example 175, methyl [6-(4-{5-[(4-fluorophenyl)methyl]-6-methylpyrimidin-4-yl}-2,3,4,5-tetrahydro-1,4-benzoxazepin-7-yl)-1H-imidazo[4,5-b]pyridin-2-yl]carbamate], the 50% inhibitory concentration (IC50) was no more than 10 nM. As for `Cc1ncnc(N2CCOc3ccc(-c4cnc5nc(N)[nH]c5c4)cc3C2)c1Cc1ccc(F)cc1` [Example 176, 6-(4-{5-[(4-fluorophenyl)methyl]-6-methylpyrimidin-4-yl}-2,3,4,5-tetrahydro-1,4-benzoxazepin-7-yl)-1H-imidazo[4,5-b]pyridin-2-amine], the figure is no more than 10 nM.

`CC1(C)CCc2ncnc(N3CCOc4ccc(-c5cnc6nc(N)[nH]c6c5)cc4C3)c2C1` [Example 177, 6-[4-(6,6-dimethyl-5,6,7,8-tetrahydroquinazolin-4-yl)-2,3,4,5-tetrahydro-1,4-benzoxazepin-7-yl]-1H-imidazo[4,5-b]pyridin-2-amine]: the IC50 is no more than 10 nM. As for `CCC1CCc2ncnc(N3CCOc4ccc(-c5cnc6nc(N)[nH]c6c5)cc4C3)c2C1` (stereo not shown) [Example 178, 6-[4-(6-ethyl-5,6,7,8-tetrahydroquinazolin-4-yl)-2,3,4,5-tetrahydro-1,4-benzoxazepin-7-yl]-1H-imidazo[4,5-b]pyridin-2-amine], the figure is no more than 10 nM; as for `CC1CCc2c(ncnc2N2CCOc3ccc(-c4cnc5nc(N)[nH]c5c4)cc3C2)C1` (stereo not shown) [Example 179, 6-[4-(7-methyl-5,6,7,8-tetrahydroquinazolin-4-yl)-2,3,4,5-tetrahydro-1,4-benzoxazepin-7-yl]-1H-imidazo[4,5-b]pyridin-2-amine], 10 to 50 nM.

For `COc1cc2ncnc(N3CCOc4ccc(-c5cnc6nc(N)[nH]c6c5)cc4C3)c2cc1OC` [Example 180, 6-{4-[6,7-bis(methyloxy)quinazolin-4-yl]-2,3,4,5-tetrahydro-1,4-benzoxazepin-7-yl}-1H-imidazo[4,5-b]pyridin-2-amine], the IC50 is 10 to 50 nM. As for `Nc1nc2ncc(-c3ccc4c(c3)CN(c3ncnc5ccc(Br)cc35)CCO4)cc2[nH]1` [Example 181, 6-[4-(6-brromoquinazolin-4-yl)-2,3,4,5-tetrahydro-1,4-benzoxazepin-7-yl]-1H-imidazo[4,5-b]pyridin-2-amine], the figure is no more than 10 nM. Then `COc1ccc2ncnc(N3CCOc4ccc(-c5cnc6nc(N)[nH]c6c5)cc4C3)c2c1` [Example 182, 6-{4-[6-(methyloxy)quinazolin-4-yl]-2,3,4,5-tetrahydro-1,4-benzoxazepin-7-yl}-1H-imidazo[4,5-b]pyridin-2-amine], with 10 to 50 nM; and `Nc1nc2ncc(-c3ccc4c(c3)CN(c3ncnc5ccc(I)cc35)CCO4)cc2[nH]1` [Example 183, 6-[4-(6-iodoquinazolin-4-yl)-2,3,4,5-tetrahydro-1,4-benzoxazepin-7-yl]-1H-imidazo[4,5-b]pyridin-2-amine], with no more than 10 nM; and `COc1cc2c(N3CCOc4ccc(-c5cnc6nc(N)[nH]c6c5)cc4C3)ncnc2cc1Br` [Example 184, 6-{4-[7-bromo-6-(methyloxy)quinazolin-4-yl]-2,3,4,5-tetrahydro-1,4-benzoxazepin-7-yl}-1H-imidazo[4,5-b]pyridin-2-amine], with 250 to 1000 nM.

For `Nc1nc2ncc(-c3ccc4c(c3)CN(c3ncnc5cc(Cl)c(Br)cc35)CCO4)cc2[nH]1` [Example 185, 6-[4-(6-bromo-7-chloroquinazolin-4-yl)-2,3,4,5-tetrahydro-1,4-benzoxazepin-7-yl]-1H-imidazo[4,5-b]pyridin-2-amine], the IC50 is 10 to 50 nM. For `Nc1nc2ncc(-c3ccc4c(c3)CN(c3ncnc5ccc(Cl)cc35)CCO4)cc2[nH]1` [Example 186, 6-[4-(6-chloroquinazolin-4-yl)-2,3,4,5-tetrahydro-1,4-benzoxazepin-7-yl]-1H-imidazo[4,5-b]pyridin-2-amine], the IC50 is 10 to 50 nM.

As for `Nc1nc2ncc(-c3ccc4c(c3)CN(c3ncnc5ccc(F)cc35)CCO4)cc2[nH]1` [Example 187, 6-[4-(6-fluoroquinazolin-4-yl)-2,3,4,5-tetrahydro-1,4-benzoxazepin-7-yl]-1H-imidazo[4,5-b]pyridin-2-amine], the IC50 was 10 to 50 nM.

For the compound `COc1cc2nccc(N3CCOc4ccc(-c5cnc6nc(N)[nH]c6c5)cc4C3)c2cc1OC` [Example 188, 6-{4-[6,7-bis(methyloxy)quinolin-4-yl]-2,3,4,5-tetrahydro-1,4-benzoxazepin-7-yl}-1H-imidazo[4,5-b]pyridin-2-amine], the IC50 was in the range of 50 to 250 nM. With `Cc1ncnc(N2CCOc3ccc(-c4ccc5nc(N)[nH]c5c4)cc3C2)c1Cc1ccc(F)cc1` [Example 189, 6-(4-{5-[(4-fluorophenyl)methyl]-6-methylpyrimidin-4-yl}-2,3,4,5-tetrahydro-1,4-benzoxazepin-7-yl)-1H-benzimidazol-2-amine], the IC50 is no more than 10 nM. As for `Nc1nc2ccc(-c3ccc4c(c3)CN(c3ccnc5ccccc35)CCO4)cc2[nH]1` [Example 190, 6-(4-quinolin-4-yl-2,3,4,5-tetrahydro-1,4-benzoxazepin-7-yl)-1H-benzimidazol-2-amine], the figure is 250 to 1000 nM. Then `COc1cc2nccc(N3CCOc4ccc(-c5ccc6nc(N)[nH]c6c5)cc4C3)c2cc1OC` [Example 191, 6-{4-[6,7-bis(methyloxy)quinolin-4-yl]-2,3,4,5-tetrahydro-1,4-benzoxazepin-7-yl}-1H-benzimidazol-2-amine], with 250 to 1000 nM. As to `CCNc1nc2ccc(-c3ccc4c(c3)CN(c3ncnc(C)c3Cc3ccc(F)cc3)CCO4)cc2[nH]1` [Example 192, N-ethyl-6-(4-{5-[(4-fluorophenyl)methyl]-6-methylpyrimidin-4-yl}-2,3,4,5-tetrahydro-1,4-benzoxazepin-7-yl)-1H-benzimidazol-2-amine], the IC50 is no more than 10 nM.

Consider `Cc1ncnc(N2CCOc3ccc(-c4ccc5[nH]c(NCCF)nc5c4)cc3C2)c1Cc1ccc(F)cc1` [Example 193, N-(2-fluoroethyl)-5-(4-{5-[(4-fluorophenyl)methyl]-6-methylpyrimidin-4-yl}-2,3,4,5-tetrahydro-1,4-benzoxazepin-7-yl)-1H-benzimidazol-2-amine], for which the 50% inhibitory concentration (IC50) was no more than 10 nM. As for `Cc1ncnc(N2CCOc3ccc(-c4ccc5nc(N)[nH]c5n4)cc3C2)c1Cc1ccc(F)cc1` [Example 194, 5-(4-{5-[(4-fluorophenyl)methyl]-6-methylpyrimidin-4-yl}-2,3,4,5-tetrahydro-1,4-benzoxazepin-7-yl)-3H-imidazo[4,5-b]pyridin-2-amine], the figure is 10 to 50 nM. For the compound `CN(C)c1nc2ccc(-c3ccc4c(c3)CN(c3ccnc5ccccc35)CCO4)cc2[nH]1` [Example 195, N,N-dimethyl-6-(4-quinolin-4-yl-2,3,4,5-tetrahydro-1,4-benzoxazepin-7-yl)-1H-benzimidazol-2-amine], the IC50 is 1000 to 2000 nM. As for `COCc1nc2ccc(-c3ccc4c(c3)CN(c3ccnc5ccccc35)CCO4)cc2[nH]1` [Example 196, 7-{2-[(methyloxy)methyl]-1H-benzimidazol-6-yl}-4-quinolin-4-yl-2,3,4,5-tetrahydro-1,4-benzoxazepine], the figure is no less than 2000 nM.

As for `CCCc1nc2ccc(-c3ccc4c(c3)CN(c3ccnc5ccccc35)CCO4)cc2[nH]1` [Example 197, 7-(2-propyl-1H-benzimidazol-6-yl)-4-quinolin-4-yl-2,3,4,5-tetrahydro-1,4-benzoxazepine], the IC50 lay within 1000 to 2000 nM. As for `c1ccc2c(N3CCOc4ccc(-c5ccc6nc(C7CC7)[nH]c6c5)cc4C3)ccnc2c1` [Example 199, 7-(2-cyclopropyl-1H-benzimidazol-6-yl)-4-quinolin-4-yl-2,3,4,5-tetrahydro-1,4-benzoxazepine], the figure is 250 to 1000 nM. As for `c1ccc2c(N3CCOc4ccc(-c5ccc6nc(C7CCCCC7)[nH]c6c5)cc4C3)ccnc2c1` [Example 200, 7-(2-cyclohexyl-1H-benzimidazol-6-yl)-4-quinolin-4-yl-2,3,4,5-tetrahydro-1,4-benzoxazepine], the figure is 1000 to 2000 nM; as for `c1ccc2c(N3CCOc4ccc(-c5ccc6nc(C7CNC7)[nH]c6c5)cc4C3)ccnc2c1` [Example 201, 7-(2-azetidin-3-yl-1H-benzimidazol-6-yl)-4-quinolin-4-yl-2,3,4,5-tetrahydro-1H-benzoxazepine], 1000 to 2000 nM. Regarding `c1ccc2c(N3CCOc4ccc(-c5ccc6nc(C7CCCCN7)[nH]c6c5)cc4C3)ccnc2c1` (stereo not shown) [Example 202, 7-(2-piperidin-2-yl-1H-benzimidazol-6-yl)-4-quinolin-4-yl-2,3,4,5-tetrahydro-1,4-benzoxazepine], the IC50 fell in the range of 250 to 1000 nM. As for `CC(C)c1nc2ccc(-c3ccc4c(c3)CN(c3ccnc5ccccc35)CCO4)cc2[nH]1` [Example 203, 7-[2-(1-methylethyl)-1H-benzimidazol-6-yl]-4-quinolin-4-yl-2,3,4,5-tetrahydro-1,4-benzoxazepine], the figure is 1000 to 2000 nM.

As a reminder, the IC50 is the point on the concentration scale where inhibition reaches its midpoint.

These data come from patent publication US8648066B2 (Exelixis, Inc., priority 2009, dated 2014).
